Results published in patent publication US20220362326A1, “INHIBITING ZD17-JNK I[…] A THERAPY FOR ACUTE MYOCARDIAL INFARCTION” (The University of British Columbia, priority 2019, published 2022).
Ends that are not written are not given here.

Legend:
[1] = system: rat model of AMI; experiment: Rat model of AMI: TTC staining and measurement of heart infarct; type: in vivo, Sprague Dawley rats; conditions: rats, 20 mg/kg i.v. immediately after ligation, hearts removed four hours later; vs saline, P<0.01
[2] = system: pig model of transient AMI; experiment: Pig model of transient AMI: TTC staining and heart infarct; type: in vivo, Chinese Bama miniature pigs; conditions: pigs, 2 mg/kg i.v. twice, day 30, TTC staining; vs saline, P<0.01
[3] = system: pig model of transient AMI; experiment: Pig model of transient AMI: histological analysis of hearts (H & E); type: in vivo, Chinese Bama miniature pigs
[4] = pigs, 2 mg/kg i.v. twice; vs saline group
From the text: The heart rate (a), electrocardiogram (QRS duration (b), QRS voltage (c), T voltage (d) and ST voltage (e)), and body weight (f) were monitored before artery occlusion, after artery occlusion and after reperfusion. […] The NIMoEsh-Tat group: N=5; the saline group: N=5. Data are presented as mean±S.E.M.
The cardioprotective efficacy of the NIMoEsh-Tat peptide was also investigated in Chinese Bama miniature pigs. Transient AMI was induced in these pigs by occluding the left circumflex coronary artery for 1 hour, followed by blood reperfusion. Pigs received one i.v. injection of the NIMoEsh-Tat peptide (2 mg/kg) or saline 40 min after occlusion and another i.v. injection 24 hours after reperfusion. The pigs were evaluated for heart function on day 30 before they were sacrificed for histological analysis.

[5] = system: primary cardiomyocyte culture; experiment: Cell death assays in H2O2-treated primary cardiomyocyte culture; type: cell-based, Sprague Dawley rats; conditions: 10 uM peptide, 30 min before 300 uM H2O2 (4 hrs) and during 12 hr recovery
Experimental: Hearts were removed from P1-2 Sprague Dawley rats and cut into 1 mm^3 cubes. The heart tissue was then digested in the cell digestion buffer at 37° C. for 4 min and centrifuged at 200 rpm for 1 min to remove the supernatant. The pellet was digested in the cell digestion buffer again at 37° C. until it was fully digested and then centrifuged at 200 rpm for 1 min to remove the debris. The sample was mixed with FBS to neutralize trypsin and collagenase and then centrifuged at 1000 rpm for 5 min to remove the supernatant. Cardiomyocytes were isolated from the sample by differential adhesion and then cultured in plates in the cell culture medium. Primary cardiomyocyte cultures were maintained in the 37° C. incubator with 95% […] and 5% CO2 for 5 days before being used for experiments.
Cell death of primary cardiomyocyte culture was measured using a variety of assays. MTT and the activity of creatine kinase, lactate dehydrogenase, malondialdehyde and superoxide dismutase were measured using commercial kits and according to manufacturer's instructions. Cell apoptosis assays were conducted by treating primary cardiomyocyte culture with the Annexin V-FITC cytotoxicity kit, followed by flow cytometry (BD, FACSlalibur) to determine the apoptosis percentage.
Primary cardiomyocyte cultures were treated with 300 uM H2O2 for 4 hours to induce oxidative stress. Then, cardiomyocytes were placed back in the normal culture medium for 12 hours before cell death analysis. 30 min before H2O2 treatment and during the 12 hour-recovery period, some cardiomyocytes were treated with 10 uM NIMoEsh-Tat peptide.

[6] = system: rat model of AMI; experiment: Rat model of AMI: heart function (hemodynamic) measurement; conditions: rats, 20 mg/kg i.v. at 0, 24 and 48 hours after surgery, measured 4 weeks after last injection
Experimental: Rats were subjected to AMI by ligation of the left anterior descending coronary artery as described previously (Yu, J. G. et al. Acta Pharmacol Sin 34, 1508-1514, doi:10.1038/aps.2013.147 (2013)). Briefly, rats were anesthetized with 100 mg/kg ketamine hydrochloride and 10 mg/kg diazepam by intraperitoneal injection and then received artificial ventilation using a respirator (Shanghai Alcott Biotech, China, ALC-V8) with a tidal volume of 20 mL and a respiratory rate of 60/min. The heart was exteriorized through the 4th intercostal space and the left anterior descending coronary artery was ligated using a 6-0 suture. Rats were placed back in their home cages after the incision was closed. Sham rats underwent the same protocol except without ligation of the coronary artery.
Hemodynamic assessments in rats were conducted as described by Yu et al. (Acta Pharmacol Sin 34, 1508-1514, doi:10.1038/aps.2013.147 (2013)). Briefly, rats were anesthetized with 1.25 g/kg 25% urethane and a polyethylene catheter connected to a pressure transducer (Powerlab 30, ADlnstruments) was inserted into the right carotid artery and then advanced into the left ventricle cavity. The mean heart rate, systolic blood pressure, left ventricular systolic pressure (LVSP), left ventricular end diastolic pressure (LVEDP), and maximal rates of pressure rise (+dp/dtmax) and decline (−dp/dtmax) were recorded for 30 min and then analyzed.
Rats receiving sham surgery were used as control.

[7] = system: pig model of transient AMI; experiment: Pig model of transient AMI: transthoracic echocardiography; type: in vivo, Chinese Bama miniature pigs; conditions: pigs, 2 mg/kg i.v. 40 min after occlusion and 24 hours after reperfusion, day 30, vs saline
[8] = male pigs, 2 mg/kg, N number 5, day 30
[9] = male pigs, 2 mg/kg, N number 5, + = slight (almost invisible)
[10] = male pigs, 2 mg/kg, N number 5, ++ = mild (visible but very small)

Sequence: WAAYRTHSVDYGRKKRRQRRR [NIMoEsh-Tat, WAAYRTHSVD-YGRKKRRQRRR]
- percentage of heart tissue infarct after AMI (FIG. 2a-b) [1]: significantly reduced
- volume of AMI-induced heart infarct (FIGS. 3e and 3f) [2]: reduced the volume of AMI-induced heart infarct
- Atrial fibrillation, Total (number of pigs) [3, 8]: 5
- Bleeding, Total (number of pigs) [3, 8]: 4
- Granuloma, Total (number of pigs) [3, 8]: 1
- Inflammation, Total (number of pigs) [3, 8]: 4
- Necrosis, Total (number of pigs) [3, 8]: 4
- Pericarditis, Total (number of pigs) [3, 8]: 0
- Atrial fibrillation, + (number of pigs) [3, 9]: 2
- Bleeding, + (number of pigs) [3, 9]: 4
- Granuloma, + (number of pigs) [3, 9]: 1
- Inflammation, + (number of pigs) [3, 9]: 4
- Pericarditis, + (number of pigs) [3, 9]: 0
- Atrial fibrillation, ++ (number of pigs) [3, 10]: 2
- Inflammation, ++ (number of pigs) [3, 10]: 0
- Necrosis, ++ (number of pigs) [3, 10]: 0
- Atrial fibrillation, +++ (number of pigs) ([3]; male pigs, 2 mg/kg, N number 5, +++ = moderate (visible and quantifiable)): 1
- Necrosis, grade not given (number of pigs) ([3]; male pigs, 2 mg/kg, N number 5, grade cell empty, line above ++): 4
- Pericarditis, grade not given (number of pigs) ([3]; male pigs, 2 mg/kg, N number 5, grade cell empty, line below +): 0
- AMI-induced pathology observed under microscope, summary ([3]; pigs, 2 mg/kg i.v. twice, day 30, vs saline controls): much less AMI-induced pathology
- fibrillation in pig heart, H & E image (FIG. 3g) ([3]; pigs, 2 mg/kg i.v. twice, day 30, vs saline-treated pig heart): less fibrillation
- body weight recovery after AMI (FIG. 4) [4]: same level of body weight recovery
- H2O2-induced cell death, cell apoptosis assay (FIG. 1b) ([5]; Annexin V-FITC, flow cytometry): effectively reduced H2O2-induced cell death
- CK activity in the culture medium (FIG. 1c) ([5]; vs H2O2 group): did not fully rescue H2O2-induced increase of CK activity, there was a trend of decreased CK activity
- H2O2-induced cell death, MTT assay (FIG. 1a) ([5]; vs H2O2 group): effectively reduced H2O2-induced cell death
- LDH activity in the culture medium (FIG. 1e) ([5]; vs H2O2 group): effectively reduced H2O2-induced cell death
- MDA activity in cultured cells (FIG. 1d) ([5]; vs H2O2 group): effectively reduced H2O2-induced cell death
- SOD activity in cultured cells (FIG. 1f) ([5]; vs H2O2 group): effectively reduced H2O2-induced cell death
- +dp/dtmax, maximal rate of pressure rise (FIG. 2g) ([6]; vs saline): rescued heart function after AMI
- left ventricular systolic pressure (FIG. 2e) ([6]; vs saline): rescued heart function after AMI
- −dp/dtmax, maximal rate of pressure decline (FIG. 2h) ([6]; vs saline): rescued heart function after AMI
- heart rate (FIG. 2c) ([6]; vs sham): neither saline or NIMoEsh-Tat peptide changed
- systolic blood pressure (FIG. 2d) ([6]; vs sham): neither saline or NIMoEsh-Tat peptide changed
- stroke volume (SV, FIG. 3c) ([7]; P<0.001): rescued AMI-induced function deficits
- ejection fraction (EF, FIG. 3d) ([7]; P<0.05): rescued AMI-induced function deficits
